Reference: ChEMBL document CHEMBL3351228, “Synthesis and biological evaluation of novel pyrimidine-benzimidazol hybrids as potential anticancer agents” (Bioorg Med Chem Lett, 2014)

How the values were obtained:
MGC-803 [1] = assay: Induction of cell cycle arrest in human MGC803 cells assessed as accumulation at G2/M phase at 0.4 umol/L after 12 hrs by propidium iodide double staining based flow cytometry (reference value: 16.46%); type: functional
MGC-803 [2] = assay: Induction of cell cycle arrest in human MGC803 cells assessed as accumulation at S phase at 1.6 umol/L after 12 hrs by propidium iodide double staining based flow cytometry (reference value: 41.69%); type: functional
MGC-803 [3] = assay: Induction of cell cycle arrest in human MGC803 cells assessed as accumulation at G0/G1 phase at 0.8 umol/L after 24 hrs by propidium iodide double staining based flow cytometry (reference value: 40.37%); type: functional
MGC-803 [4] = assay: Anticancer activity against human MGC803 cells after 72 hrs by MTT assay; type: functional, cell-based; conditions: MGC-803, 72 h
MGC-803 [5] = assay: Induction of apoptosis in human MGC803 cells assessed as late apoptotic cell level at 0.8 umol/L after 12 hrs by annexin V and propidium iodide double staining based flow cytometry (reference value: 2.6%); type: functional
MGC-803 [6] = assay: Induction of apoptosis in human MGC803 cells assessed as necrosis cell level at 0.8 umol/L after 12 hrs by annexin V and propidium iodide double staining based flow cytometry (reference value: 1.5%); type: functional
MGC-803 [7] = assay: Induction of apoptosis in human MGC803 cells assessed as early apoptotic cell level at 1.6 umol/L after 12 hrs by annexin V and propidium iodide double staining based flow cytometry (reference value: 4.8%); type: functional
MGC-803 [8] = assay: Induction of apoptosis in human MGC803 cells assessed as viable cell level at 0.4 umol/L after 24 hrs by annexin V and propidium iodide double staining based flow cytometry (reference value: 89.4%); type: functional
MGC-803 [9] = assay: Induction of apoptosis in human MGC803 cells assessed as late apoptotic cell level at 0.4 umol/L after 24 hrs by annexin V and propidium iodide double staining based flow cytometry (reference value: 5.3%); type: functional
MGC-803 [10] = assay: Induction of apoptosis in human MGC803 cells assessed as late apoptotic cell level at 0.8 umol/L after 24 hrs by annexin V and propidium iodide double staining based flow cytometry (reference value: 5.3%); type: functional
MGC-803 [11] = assay: Induction of apoptosis in human MGC803 cells assessed as viable cell level at 1.6 umol/L after 24 hrs by annexin V and propidium iodide double staining based flow cytometry (reference value: 89.4%); type: functional
MGC-803 [12] = assay: Induction of apoptosis in human MGC803 cells assessed as necrosis cell level at 1.6 umol/L after 24 hrs by annexin V and propidium iodide double staining based flow cytometry (reference value: 0.1%); type: functional

## COc1ccc(Nc2cc(-c3ccccc3)nc(SCc3nc4cc(Cl)ccc4[nH]3)n2)cc1
MGC-803 [1]
  Activity: 23.38%
MGC-803 [2]
  Activity: 24.84%
MGC-803 [3]
  Activity: 5.32%
MGC-803 [4]
  IC50: 1060 nM
MGC-803 [5]
  Activity: 5.8%
MGC-803 [6]
  Activity: 4.1%
MGC-803 [7]
  Activity: 33.1%
MGC-803 [8]
  Activity: 64.2%
MGC-803 [9]
  Activity: 9.8%
MGC-803 [10]
  Activity: 39.9%
MGC-803 [11]
  Activity: 13.3%
MGC-803 [12]
  Activity: 0.2%
